Source: patent US8067461B2, “3-acyl coumarins, thiochromones and quinolones and therapeutic uses thereof” (Temple University-Of The Commonwealth System of Higher …, priority 2005, dated 2011)
Where two headings read alike, the source gives them in different places.

Key:
CDK4/CyclinD1 = CDK4/CyclinD1 (Homo sapiens, UniProt P11802); experiment: In vitro kinase assay CDK4/CyclinD1, 32P incorporation into GST-Rb
CDK1/CyclinB = target: T1, CDK1/CyclinB (Homo sapiens, UniProt P06493); experiment: In vitro kinase assay CDK1/CyclinB, 32P incorporation into Histone H1; format: biochemical; conditions: recombinant human enzyme complex, average of two independent experiments in triplicate
T1 construct: purchased Upstate USA, Charlottesville, Va

DU145 Cells = experiment: Cytotoxicity on DU145 tumor cells, viable cells by Trypan blue exclusion; format: cell-based, human; conditions: DU145 prostate cell line, 96 h continuous treatment, five concentrations (1-100 μM range)
Method: The effect of compounds according to Formula I on the growth of human tumor cells in culture was evaluated using the androgen receptor negative prostate cell line DU145. All cell cultures were maintained at 37° C. in a humidified atmosphere of 5% CO2.
Cells were treated with compounds according to Formula I at five different concentrations (1-100 μM range) for each compound. The dose response of each cell line was established by determining the number of viable cells after 96 h of continuous treatment against each of the different test concentrations of each compound. The determination of viable cells was done by the by the Trypan blue exclusion method. An IC50 (μM) for each compound was determined.

CDK2/CylinE = target: T2, CDK2/CylinE (Homo sapiens, UniProt P24941); experiment: In vitro kinase assay CDK2/CylinE, 32P incorporation into Histone H1; format: biochemical; conditions: recombinant human enzyme complex, average of two independent experiments in triplicate
T2 construct: purchased Upstate USA, Charlottesville, Va

CDK9/CyclinT1 = target: T3, CDK9/CyclinT1 (Homo sapiens, UniProt P50750); experiment: In vitro kinase assay CDK9/CyclinT1, 32P incorporation into RNA Polymerase II carboxy terminal domain; format: biochemical; conditions: recombinant human enzyme complex, average of two independent experiments in triplicate
T3 construct: purchased Upstate USA, Charlottesville, Va
T3 sequence (P50750 whole entry, the tested form may be a part): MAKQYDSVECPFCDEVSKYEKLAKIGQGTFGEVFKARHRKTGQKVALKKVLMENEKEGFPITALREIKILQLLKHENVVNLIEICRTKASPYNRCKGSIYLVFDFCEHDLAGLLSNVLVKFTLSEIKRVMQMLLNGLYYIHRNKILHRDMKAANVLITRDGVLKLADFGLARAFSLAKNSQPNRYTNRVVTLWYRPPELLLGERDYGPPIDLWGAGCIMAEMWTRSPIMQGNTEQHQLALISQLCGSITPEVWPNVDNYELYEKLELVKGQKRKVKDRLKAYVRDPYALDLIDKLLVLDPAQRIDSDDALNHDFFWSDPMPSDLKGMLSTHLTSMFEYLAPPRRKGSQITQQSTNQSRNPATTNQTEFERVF
T3 sequence (O60563 whole entry partner, the tested form may be a part): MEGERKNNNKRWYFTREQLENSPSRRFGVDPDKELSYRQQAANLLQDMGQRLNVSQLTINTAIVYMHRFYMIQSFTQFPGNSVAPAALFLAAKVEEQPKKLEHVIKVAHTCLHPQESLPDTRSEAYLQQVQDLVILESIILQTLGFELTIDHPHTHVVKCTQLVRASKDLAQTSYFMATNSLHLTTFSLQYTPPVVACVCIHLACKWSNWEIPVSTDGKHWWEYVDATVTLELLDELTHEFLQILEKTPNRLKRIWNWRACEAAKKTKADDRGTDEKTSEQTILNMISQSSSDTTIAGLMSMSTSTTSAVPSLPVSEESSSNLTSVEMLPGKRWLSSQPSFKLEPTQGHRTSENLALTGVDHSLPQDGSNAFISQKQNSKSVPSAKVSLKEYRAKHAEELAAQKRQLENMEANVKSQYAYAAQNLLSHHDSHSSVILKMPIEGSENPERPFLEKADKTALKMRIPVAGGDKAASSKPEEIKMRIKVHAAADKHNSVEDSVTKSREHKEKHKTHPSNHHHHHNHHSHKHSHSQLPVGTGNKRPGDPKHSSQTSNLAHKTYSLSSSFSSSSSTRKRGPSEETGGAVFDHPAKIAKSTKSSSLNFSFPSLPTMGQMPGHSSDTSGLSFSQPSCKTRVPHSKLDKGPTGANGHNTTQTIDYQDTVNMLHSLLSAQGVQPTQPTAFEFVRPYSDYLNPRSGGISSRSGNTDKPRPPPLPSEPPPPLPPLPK

Sequence of CDK4/CyclinD1 (P11802 whole entry): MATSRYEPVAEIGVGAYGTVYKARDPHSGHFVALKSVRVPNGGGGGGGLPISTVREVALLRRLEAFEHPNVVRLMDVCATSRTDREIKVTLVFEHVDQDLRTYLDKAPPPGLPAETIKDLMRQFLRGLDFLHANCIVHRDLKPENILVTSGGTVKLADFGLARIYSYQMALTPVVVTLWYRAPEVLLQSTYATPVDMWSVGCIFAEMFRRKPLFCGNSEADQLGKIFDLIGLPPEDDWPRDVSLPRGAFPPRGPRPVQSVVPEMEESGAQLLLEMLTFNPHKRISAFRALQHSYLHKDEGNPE
Sequence of CDK4/CyclinD1 (P24385 whole entry partner): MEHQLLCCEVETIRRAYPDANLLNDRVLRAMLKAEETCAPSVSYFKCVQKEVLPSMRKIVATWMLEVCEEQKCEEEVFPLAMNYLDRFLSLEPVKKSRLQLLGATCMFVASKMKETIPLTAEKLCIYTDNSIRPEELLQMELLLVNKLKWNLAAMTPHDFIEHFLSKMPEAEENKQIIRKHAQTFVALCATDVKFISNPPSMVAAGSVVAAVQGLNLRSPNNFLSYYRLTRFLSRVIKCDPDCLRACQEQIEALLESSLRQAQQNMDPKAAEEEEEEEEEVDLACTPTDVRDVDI
T1 sequence (P06493 whole entry): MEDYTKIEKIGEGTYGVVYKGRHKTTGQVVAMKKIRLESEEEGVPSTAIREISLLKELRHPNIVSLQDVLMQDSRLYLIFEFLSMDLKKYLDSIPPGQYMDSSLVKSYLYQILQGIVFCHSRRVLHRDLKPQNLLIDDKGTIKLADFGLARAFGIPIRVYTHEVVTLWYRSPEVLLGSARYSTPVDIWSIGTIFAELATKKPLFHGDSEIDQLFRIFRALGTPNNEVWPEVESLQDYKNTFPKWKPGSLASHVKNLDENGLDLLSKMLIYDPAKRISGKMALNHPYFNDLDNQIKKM
T1 sequence (P14635 whole entry partner): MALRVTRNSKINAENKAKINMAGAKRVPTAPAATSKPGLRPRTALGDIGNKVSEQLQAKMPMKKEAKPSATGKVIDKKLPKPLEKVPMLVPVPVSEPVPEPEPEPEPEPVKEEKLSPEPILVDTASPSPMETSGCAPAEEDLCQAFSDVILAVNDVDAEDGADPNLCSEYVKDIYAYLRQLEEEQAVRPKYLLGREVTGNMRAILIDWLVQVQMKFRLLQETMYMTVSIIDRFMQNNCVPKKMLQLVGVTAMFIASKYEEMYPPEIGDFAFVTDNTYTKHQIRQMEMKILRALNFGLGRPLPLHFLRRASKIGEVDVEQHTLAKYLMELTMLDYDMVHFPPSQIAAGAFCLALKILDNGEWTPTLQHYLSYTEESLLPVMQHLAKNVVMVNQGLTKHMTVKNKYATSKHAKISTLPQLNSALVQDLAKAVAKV

SMILES	IC50 (CDK4/CyclinD1)	IC50 (CDK1/CyclinB)	IC50 (CDK2/CylinE)	IC50 (CDK9/CyclinT1)	IC50 (DU145 Cells; Homo sapiens, DU-145)	IC50 (CDK4/CyclinD1; read-out: CDK4 IC50, recombinant human enzyme complex, average of two independent experiments in triplicate)	IC50 (DU145 Cells)
O=C(c1cc2cc3ccccc3cc2oc1=O)c1cc2cc3ccccc3cc2oc1=O [Example 20, [(2-oxobenzo[g]chromen-3-yl)-carbonyl]benzo[g]chromen-2-one]	–	> 10 µM	–	–	–	> 10 µM	25 to 50 µM
O=C(c1cc2cc(O)ccc2oc1=O)c1cc2cc(O)ccc2oc1=O [Example 18, 6-hydroxy-3-[(6-hydroxy-2-oxochromen-3-yl)carbonyl]chromen-2-one]	> 10 µM	> 10 µM	–	–	> 100 µM	–	–
O=C(c1cc2cc([N+](=O)[O-])ccc2oc1=O)c1cc2cc([N+](=O)[O-])ccc2oc1=O [Example 9, 6-nitro-3-[(6-nitro-2-oxochromen-3-yl)carbonyl]chromen-2-one]	> 10 µM	> 10 µM	1.54 µM	0.5 µM	1 to 10 µM	–	–
O=C(c1cc2cc(Cl)cc(Br)c2oc1=O)c1cc2cc(Cl)cc(Br)c2oc1=O [Example 19, 6-chloro-8-bromo-3-[(6-chloro-8-bromo-2-oxochromen-3-yl)carbonyl]-chromen-2-one]	> 10 µM	1 to 10 µM	0.089 µM	0.5 µM	1 to 10 µM	–	–
COc1ccc2cc(C(=O)c3cc4ccc(OC)cc4oc3=O)c(=O)oc2c1 [Example 2, 7-methoxy-3-[(7-methoxy-2-oxochromen-3-yl)carbonyl]chromen-2-one]	> 10 µM	> 10 µM	–	–	> 100 µM	–	–
Cc1ccc2oc(=O)c(C(=O)c3cc4cc(C)ccc4oc3=O)cc2c1 [Example 22, 6-methyl-3-[(6-methyl-2-oxochromen-3-yl)carbonyl]chromen-2-one]	> 10 µM	1 to 10 µM	–	–	–	–	–
O=C(c1cc2cccc(O)c2oc1=O)c1cc2cccc(O)c2oc1=O [Example 17, 8-hydroxy-3-[(8-hydroxy-2-oxochromen-3-yl)carbonyl]chromen-2-one]	> 10 µM	> 10 µM	–	–	25 to 50 µM	–	–
O=C(c1cc2ccccc2oc1=O)c1cc2ccccc2oc1=O [Example 5]	> 10 µM	> 10 µM	–	–	> 100 µM	–	–
O=C(c1cc2cc(I)ccc2oc1=O)c1cc2cc(I)ccc2oc1=O [Example 8, 6-iodo-3-[(6-iodo-2-oxochromen-3-yl)carbonyl]chromen-2-one]	> 10 µM	> 10 µM	–	–	> 100 µM	–	–
O=C(c1cc2cc([N+](=O)[O-])cc(Br)c2oc1=O)c1cc2cc([N+](=O)[O-])cc(Br)c2oc1=O [Example 27, 6-nitro-8-bromo-3-[(6-nitro-8-bromo-2-oxocbromen-3-yl)carbonyl]-chromen-2-one]	> 10 µM	–	–	–	–	–	–
O=C(c1cc2cc(Br)ccc2oc1=O)c1cc2cc(Br)ccc2oc1=O [Example 1, 6-bromo-3-[(6-bromo-2-oxo-chromen-3-yl)carbonyl]chromen-2-one]	> 10 µM	> 10 µM	–	–	> 100 µM	–	–
COc1cc(OC)c2cc(C(=O)c3cc4c(OC)cc(OC)cc4oc3=O)c(=O)oc2c1 [Example 3, 5,7-dimethoxy-3-[(5,7-dimethoxy-2-oxochromen-3-yl)carbonyl]chromen-2-one]	> 10 µM	> 10 µM	–	–	> 100 µM	–	–
COc1cc(Br)cc2cc(C(=O)c3cc4cc(Br)cc(OC)c4oc3=O)c(=O)oc12 [Example 16, 6-bromo-8-methoxy-3-[(6-bromo-8-methoxy-2-oxochromen-3-yl)-carbonyl]chromen-2-one]	> 10 µM	> 10 µM	–	–	50 to 100 µM	–	–

Continued, in another order:

IC50 (CDK4/CyclinD1)	IC50 (CDK1/CyclinB)	IC50 (CDK2/CylinE)	IC50 (CDK9/CyclinT1)	SMILES	IC50 (DU145 Cells; Homo sapiens, DU-145)	IC50 (CDK4/CyclinD1; read-out: CDK4 IC50, recombinant human enzyme complex, average of two independent experiments in triplicate)	IC50 (DU145 Cells)
> 10 µM	> 10 µM	–	–	O=C(c1cc2cccc(F)c2oc1=O)c1cc2cccc(F)c2oc1=O [Example 26, 8-fluoro-3-[(8-fluoro-2-oxochromen-3-yl)carbonyl]chromen-2-one]	–	–	–
> 10 µM	> 10 µM	–	–	O=C(c1cc2cc(F)cc(F)c2oc1=O)c1cc2cc(F)cc(F)c2oc1=O [Example 14, 6,8-difluoro-3-[(6,8-difluoro-2-oxochromen-3-yl)carbonyl]chromen-2-one]	10 to 25 µM	–	–
> 10 µM	> 10 µM	–	–	O=C(c1cc2cccc([N+](=O)[O-])c2oc1=O)c1cc2cccc([N+](=O)[O-])c2oc1=O [Example 24, 8-nitro-3-[(8-nitro-2-oxo-chromen-3-yl)carbonyl]chromen-2-one]	–	–	–
> 10 µM	> 10 µM	10 µM	0.5 µM	COc1cccc2oc(=O)c(C(=O)c3cc4c(OC)cccc4oc3=O)cc12 [Example 21, 5-methoxy-3-[(5-methoxy-2-oxochromen-3-yl)carbonyl]chromen-2-one]	50 to 100 µM	–	–
> 10 µM	> 10 µM	0.549 µM	0.5 µM	COc1cc([N+](=O)[O-])cc2cc(C(=O)c3cc4cc([N+](=O)[O-])cc(OC)c4oc3=O)c(=O)oc12 [Example 10, 8-methoxy-3-[(8-methoxy-6-nitro-2-oxo-chromen-3-yl)carbonyl]-6-nitro-chromen-2-one]	10 to 25 µM	–	–
> 10 µM	> 10 µM	–	–	O=C(c1cc2cc(F)ccc2oc1=O)c1cc2cc(F)ccc2oc1=O [Example 7, 6-fluoro-3-[(6-fluoro-2-oxochromen-3-yl)carbonyl]chromen-2-one]	> 100 µM	–	–
2.5 to 5 µM	–	10 µM	0.5 µM	O=C(c1cc2cc(Br)cc(Br)c2oc1=O)c1cc2cc(Br)cc(Br)c2oc1=O [Example 13, 6,8-dibromo-3-[(6,8-dibromo-2-oxochromen-3-yl)carbonyl]chromen-2-one]	10 to 25 µM	–	–
> 10 µM	1 to 10 µM	–	–	O=C(c1cc2cc(Cl)ccc2oc1=O)c1cc2cc(Cl)ccc2oc1=O [Example 6, 6-chloro-3-[(6-chloro-2-oxochromen-3-yl)carbonyl]chromen-2-one]	> 100 µM	–	–
> 10 µM	> 10 µM	–	–	O=C(c1cc2ccc(O)cc2oc1=O)c1cc2ccc(O)cc2oc1=O [Example 11, 7-hydroxy-3-[(7-hydroxy-2-oxo-chromen-3-yl)carbonyl]chromen-2-one]	> 100 µM	–	–
2.5 to 5 µM	> 10 µM	–	–	O=C(c1cc2cc(Cl)cc(Cl)c2oc1=O)c1cc2cc(Cl)cc(Cl)c2oc1=O [Example 12, 6,8-dichloro-3-[(6,8-dichloro-2-oxochromen-3-yl)carbonyl]chromen-2-one]	10 to 25 µM	–	–
> 10 µM	> 10 µM	–	–	CCOc1cccc2cc(C(=O)c3cc4cccc(OCC)c4oc3=O)c(=O)oc12 [Example 4, 8-ethoxy-3-[(8-ethoxy-2-oxochromen-3-yl)carbonyl]chromen-2-one]	> 100 µM	–	–
> 10 µM	> 10 µM	–	–	O=C(c1cc2cc(OC(F)(F)F)ccc2oc1=O)c1cc2cc(OC(F)(F)F)ccc2oc1=O [Example 23, 6-trifluoromethoxy-3-[(6-tri-fluoromethoxy-2-oxochromen-3-yl)-carbonyl]chromen-2-one]	–	–	–
> 10 µM	> 10 µM	–	–	COc1ccc(Br)c2cc(C(=O)c3cc4c(Br)ccc(OC)c4oc3=O)c(=O)oc12 [Example 15, 5-bromo-8-methoxy-3-[(5-bromo-8-methoxy-2-oxochromen-3-yl)-carbonyl]chromen-2-one]	25 to 50 µM	–	–
0.04 µM	–	–	–	O=C(c1cc2cc(I)cc(I)c2oc1=O)c1cc2cc(I)cc(I)c2oc1=O [Example 29, 6,8-diiodo-3-[(6,8-diiodo-2-oxochromen-3-yl)carbonyl]chromen-2-one]	10 to 20 µM	–	–
